Results on three molecules are retold here after EP2308847B1, “Substituted pyridines as inhibitors of dipeptidyl peptidase IV and their application for the treatment of diabetes and related diseases” (EMC microcollections GmbH, priority 2009, dated 2011).

pIC50: −log10 of the molar value.

This assay has as its target T1, human recombinant DPP-IV (Homo sapiens, UniProt P27487).
T1 construct: purchased Enzo Life Sciences AK499-0001
The experiment in a line: biochemical. As for the experimental part:
The potency of the tested compounds is described upon the degree in inhibition of DPP-IV cleavage of the chromogenic substrate Gly-Pro-pNA (pNA is p-nitroaniline), expressed as IC50 values.
The assay was performed in 96-well plates at 37°C. First the enzyme was preincubated with the test compounds for 10 min. Therefore each well was filled with 0.18 mU of enzyme and variable concentrations of the inhibitor. Each well was filled up with Tris buffer (50 mM, pH 7.5) to a final volume of 200 µL. For dilutions of all test compounds DMSO was used.
The assay was repeated 3 times for each test compound. IC50 values were calculated after plotting the data for up to eight inhibitor concentrations by mean.
By measuring the rate of hydrolysis of Gly-Pro-pNA at four different concentrations of substrate and inhibitor the type of inhibition was determined. […] For each concentration of inhibitor the initial rates were used for Lineweaver-Burk plot.

T1 sequence (P27487 whole entry): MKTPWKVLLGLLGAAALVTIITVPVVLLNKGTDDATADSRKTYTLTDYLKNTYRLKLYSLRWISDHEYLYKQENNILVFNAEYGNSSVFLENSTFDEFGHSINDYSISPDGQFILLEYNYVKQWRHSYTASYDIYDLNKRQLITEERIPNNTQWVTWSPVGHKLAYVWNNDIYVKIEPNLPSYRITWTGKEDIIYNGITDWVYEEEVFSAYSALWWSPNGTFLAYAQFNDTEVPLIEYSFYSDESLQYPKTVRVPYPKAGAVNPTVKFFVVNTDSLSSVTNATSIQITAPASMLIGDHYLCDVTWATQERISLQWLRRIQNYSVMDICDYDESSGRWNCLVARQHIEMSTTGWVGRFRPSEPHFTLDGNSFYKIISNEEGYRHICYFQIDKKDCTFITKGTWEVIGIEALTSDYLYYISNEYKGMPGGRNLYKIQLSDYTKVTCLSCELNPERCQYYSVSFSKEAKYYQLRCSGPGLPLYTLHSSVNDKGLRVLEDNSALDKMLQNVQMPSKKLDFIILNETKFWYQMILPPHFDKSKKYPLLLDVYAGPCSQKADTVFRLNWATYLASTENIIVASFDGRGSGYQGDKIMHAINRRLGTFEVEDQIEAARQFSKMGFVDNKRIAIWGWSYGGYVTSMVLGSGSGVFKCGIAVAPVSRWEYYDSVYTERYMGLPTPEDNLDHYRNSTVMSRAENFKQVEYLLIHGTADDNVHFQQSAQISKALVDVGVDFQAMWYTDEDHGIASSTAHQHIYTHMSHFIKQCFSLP

Regarding `Cc1nc(C(=O)O)cc(-c2ccc(F)cc2)c1CN` [(XIII)], the negative logarithm of the IC50 (pIC50) was over 5.00.
As to `Cc1nc(C(=O)O)cc(-c2ccccc2F)c1CN` [(XIV)], the pIC50 was over 5.00.
As for `Cc1nc(-c2ccc(Cl)cc2Cl)cc(C(=O)O)c1CN` [regioisomer (XV), reference compound], the figure is over 5.00.

Usually pIC50 stands for −log10 of the IC50, conventionally taken in molar units.
